Patent US20220133714A1, “EXTRACELLULAR MATRIX MODULATING AGENT” (KOWA COMPANY, LTD., priority 2019, published 2022)

How the values were obtained:
[1] = system: human fibroblasts; conditions: cited from earlier work
[2] = system: corneal endothelial cells; conditions: cited from earlier work; for apoptosis and endothelial-mesenchymal transition (EMT) of corneal endothelial cells / cell adhesion, migration, proliferation and wound healing: in vitro and in vivo animal models
[3] = system: corneal endothelial cells of FECD patients; assay: Real-time PCR expression of FECD-associated matrix genes in FECD patient endothelial-Descemet membrane specimens; format: cell-based, human; conditions: 30 μM, 24 hours, vs untreated controls
Experimental: (§1) FIG. 4 illustrates Relative expression of FECD-associated matrix genes in corneal endothelial cells of FECD patients (n=20) without and with incubation in 30 μM K-115 for 24 h. Gene expression was analyzed by quantitative real-time PCR and normalized to GAPDH (*p<0.01, **p<0.001). Endothelial-Descemet membrane (EDM)-complexes from normal donor corneas and from FECD patients during DMEK surgery were prepared. EDM scrolls were dissected into two halves and incubated for 24-72 hours in CorneaMax storage medium (Eurobio) with or without K-115 (Selleck Chemicals). Gene expression analysis was performed using specific real-time PCR arrays for FECD-associated candidate genes as well as RT2 Profiler PCR Arrays (Quiagen). Array results were again validated using gene-specific real-time PCR assays. Protein expression analysis was performed by Western blotting. Then, gene expression levels in FECD specimens were analyzed, which were incubated in 30 μM K-115 for 24 hours. […] In order to identify additional matrix genes that may be transcriptionally regulated by K-115, gene expression profiling using a Human Extracellular Matrix and Adhesion Molecule PCR array were performed. With this approach, downregulation of fibronectin and collagen types I and III and detected additional downregulation of vitronectin and collagen types V and XIV in corneal endothelial cells from FECD patients (data not shown) were confirmed.

[4] = system: corneal endothelial cells from FECD patients; assay: Human Extracellular Matrix and Adhesion Molecule PCR array gene expression profiling; format: cell-based; conditions: data not shown
Experimental: as §1, with “Endothelial-Descemet” for “FIG. 4 illustrates Relative expression of FECD-associated matrix genes in corneal endothelial cells of FECD patients (n=20) without and with incubation in 30 μM K-115 for 24 h. Gene expression was analyzed by quantitative real-time PCR and normalized to GAPDH (*p<0.01, **p<0.001). Endothelial-Descemet”

[5] = system: corneal endothelial cells of FECD patients; assay: Western blot protein expression in FECD specimens; format: cell-based, human; conditions: 30 μM, 72 hours of incubation
Experimental: FIG. 5 illustrates Western Blot analysis of fibronectin in corneal endothelial cells of FECD patients (n=4); equal loading of samples was verified by β-actin.
(§2) Endothelial-Descemet membrane (EDM)-complexes from normal donor corneas and from FECD patients during DMEK surgery were prepared. EDM scrolls were dissected into two halves and incubated for 24-72 hours in CorneaMax storage medium (Eurobio) with or without K-115 (Selleck Chemicals). Gene expression analysis was performed using specific real-time PCR arrays for FECD-associated candidate genes as well as RT2 Profiler PCR Arrays (Quiagen). Array results were again validated using gene-specific real-time PCR assays. Protein expression analysis was performed by Western blotting.
Then, gene expression levels in FECD specimens were analyzed, which were incubated in 30 μM K-115 for 24 hours. […] In order to identify additional matrix genes that may be transcriptionally regulated by K-115, gene expression profiling using a Human Extracellular Matrix and Adhesion Molecule PCR array were performed. With this approach, downregulation of fibronectin and collagen types I and III and detected additional downregulation of vitronectin and collagen types V and XIV in corneal endothelial cells from FECD patients (data not shown) were confirmed.

[6] = system: corneal endothelial cells of normal donors; assay: Real-time PCR expression of FECD-associated matrix genes in normal donor endothelial-Descemet membrane specimens; format: cell-based, human; conditions: normal EDM specimens, 24 h
Experimental: FIG. 3 illustrates Relative expression of FECD-associated matrix genes in corneal endothelial cells of normal donors (n=6) without and with incubation in 10-100 μM K-115 for 24 h. Gene expression was analyzed by quantitative real-time PCR and normalized to GAPDH (*p<0.01).
as §2

In the case of `O=S(=O)(c1cccc2cnccc12)N1CCCNCC1` [Fasudil], the “expression of α-SMA, MLCP, LIMK1, p-cofilin, collagen I, and collagen III protein” value [1] is listed as “attenuated”.
In the case of `Cc1cncc2cccc(S(=O)(=O)N3CCCNC[C@@H]3C)c12` [H-1152], the “apoptosis and endothelial-mesenchymal transition (EMT) of corneal endothelial cells” value [2] is given as “suppressed” and the “cell adhesion, migration, proliferation and wound healing” value (shortened to “cell adhesion, migration”) [2] is given as “stimulated”.
In the case of `C[C@H]1CNCCCN1S(=O)(=O)c1cccc2cncc(F)c12` [K-115, (S)-(−)-1-(4-fluoro-5-isoquinolinesulfonyl)-2-methyl-1,4-homopiperazine], the TGFBI gene expression [3] is reported as “upregulated”, the agrin gene expression [3] is reported as “significant reduction” and the “collagen type I gene expression” value [3] is reported as “significant reduction”. For the same molecule, the “collagen type III gene expression” value [3] was “significant reduction”, the “collagen type XVI gene expression” value [3] was “upregulated” and the fibronectin gene expression [3] was “significant reduction”. For the same molecule, the “integrin a4 (ITGA4) gene expression” value [3] was “upregulated”, the α-SMA gene expression [3] was “significant reduction” and the EMT markers [2] was “downregulation”. The “endothelial cell proliferation and wound healing” value [2] was “stimulating”, the functional endothelial markers [2] was “upregulation” and the “collagen type I gene expression (PCR array)” value [4] was “downregulation”. The “collagen type III gene expression (PCR array)” value [4] was “downregulation”, the “collagen type V gene expression (PCR array)” value [4] was “downregulation” and the “collagen type XIV gene expression (PCR array)” value [4] was “downregulation”. The “fibronectin gene expression (PCR array)” value [4] was “downregulation”, the “vitronectin gene expression (PCR array)” value [4] was “downregulation” and the “collagen type III protein level” value [5] was “significantly downregulated”. For the same molecule, the fibronectin protein level ([5]; Western blot) was “significantly downregulated”, the agrin gene expression ([6]; 10-100 μM, normalized to GAPDH) was “significantly downregulated” and the “collagen type I gene expression” value ([6]; 10-100 μM, normalized to GAPDH) was “significantly downregulated”. For the same molecule, the “collagen type III gene expression” value ([6]; 10-100 μM, normalized to GAPDH) was “significantly downregulated”, the fibronectin gene expression ([6]; 10-100 μM, normalized to GAPDH) was “significantly downregulated” and the “α-smooth muscle actin (α-SMA) gene expression” value ([6]; 10-100 μM, normalized to GAPDH) was “significantly downregulated”. For the same molecule, the β-actin gene expression ([6]; 10-100 μM, normalized to GAPDH) was “significantly downregulated” and the “most effective concentration for downregulation of matrix genes” value ([6]; tested 10-100 μM) was 30 µM.
For `O=C(NCc1ccccc1)c1csc(Nc2ccncn2)n1` [Thiazovivin], the “apoptosis and endothelial-mesenchymal transition (EMT) of corneal endothelial cells” value [2] is listed as “suppressed” and the “cell adhesion, migration” value [2] is listed as “stimulated”.
For `C[C@@H](N)[C@H]1CC[C@H](C(=O)Nc2ccncc2)CC1` [Y-27632], the “apoptosis and endothelial-mesenchymal transition (EMT) of corneal endothelial cells” value [2] is given as “suppressed” and the “cell adhesion, migration” value [2] is given as “stimulated”.
